pIC50: −log10 of the molar value.
Key:
Type in all cases: functional, cell-based
HeLa = test: Antiproliferative activity against human HeLa cells assessed as reduction in cell viability by MTT assay
MCF7 = test: Antiproliferative activity against human MCF7 cells assessed as reduction in cell viability by MTT assay
HT-29 = test: Antiproliferative activity against human HT-29 cells assessed as reduction in cell viability by MTT assay
HCT-116 = test: Antiproliferative activity against human HCT-116 cells assessed as reduction in cell viability by MTT assay

SMILES | pIC50 (HeLa) | pIC50 (MCF7) | pIC50 (HT-29) | pIC50 (HCT-116)
O=c1[nH]cc(F)c(=O)[nH]1 [FLUOROURACIL] | 4.37 | 4.74 | 4.79 | –
NS(=O)(=O)c1ccc(Nc2ncc(/N=C/c3ccc(C(F)(F)F)cc3)c(NC3CCCC3)n2)cc1 | 4.66 | < 4.00 | < 4.00 | < 4.00
CN1CCN(c2ccc(Nc3ncc(/N=C/c4ccc(C(F)(F)F)cc4)c(NC4CCCC4)n3)cc2)CC1 | < 4.00 | < 4.00 | 4.09 | < 4.00
CCOC(=O)/C=N/c1cnc(Nc2ccc(S(N)(=O)=O)cc2)nc1NC1CCCC1 | 4.68 | 4.37 | 4.63 | 5.02
NS(=O)(=O)c1ccc(Nc2ncc(/N=C/c3cccs3)c(NC3CCCC3)n2)cc1 | 4.96 | 4.64 | 5.00 | 4.87
FC(F)(F)c1ccc(/C=N/c2cnc(Nc3ccc(N4CCOCC4)cc3)nc2NC2CCCC2)cc1 | < 4.00 | < 4.00 | < 4.00 | 4.01
CC(C)Nc1nc(Nc2ccc(S(N)(=O)=O)cc2)ncc1/N=C/c1ccc(C(F)(F)F)cc1 | < 4.00 | < 4.00 | < 4.00 | < 4.00
CCOC(=O)/C=N/c1cnc(Nc2ccc(N3CCN(C)CC3)cc2)nc1NC1CCCC1 | 4.72 | 4.37 | 4.82 | 4.77
NS(=O)(=O)c1ccc(Nc2ncc(/N=C/c3ccccc3)c(NC3CCCC3)n2)cc1 | 4.81 | 4.41 | 4.57 | 4.58
CC(C)Nc1nc(Nc2ccc(N3CCOCC3)cc2)ncc1/N=C/c1ccc(C(F)(F)F)cc1 | < 4.00 | < 4.00 | < 4.00 | < 4.00
C(=N\c1cnc(Nc2ccc(N3CCOCC3)cc2)nc1NC1CCCC1)/c1cccs1 | < 4.00 | < 4.00 | 4.68 | < 4.00
CN1CCN(c2ccc(Nc3ncc(/N=C/c4ccccc4)c(NC4CCCC4)n3)cc2)CC1 | < 4.00 | < 4.00 | 4.54 | 4.45
CC(C)Nc1nc(Nc2ccc(N3CCOCC3)cc2)ncc1/N=C/c1cccs1 | < 4.00 | < 4.00 | 4.60 | 4.83
